Laboratory results as given in ChEMBL document CHEMBL1201862, “PubChem BioAssay data set” (2004).
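Tested at 5 concentrations; 48 h exposure; 96-well plates; endpoints linearly interpolated, else capped at highest concentration. GI50 is the concentration that inhibits growth by half.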 Active and inactive are the calls of the source. Rule as the data show it: active = GI50 up to about 1.1 µM and inactive = higher.

Key:
Test in all cases: NCI anticancer screen, dose series, 48 h
SF-268 = system: SF-268
HT-29 = system: HT-29
COLO 205 = system: COLO 205
SNB-19 = system: SNB-19
HOP-92 = system: HOP-92
K562 = system: K562
SW-620 = system: SW-620
A498 = system: A498
SF-295 = system: SF-295
HCT-116 = system: HCT-116
SK-MEL-5 = system: SK-MEL-5
A549 = system: A549
EKVX = system: EKVX
SK-MEL-2 = system: SK-MEL-2
OVCAR-3 = system: OVCAR-3
RXF 393 = system: RXF 393
RPMI-8226 = system: RPMI-8226
SR = system: SR

Row | SMILES | GI50 (SF-268) | GI50 (HT-29) | GI50 (COLO 205) | GI50 (SNB-19) | GI50 (HOP-92) | GI50 (K562) | GI50 (SW-620) | GI50 (A498) | GI50 (SF-295) | GI50 (HCT-116) | GI50 (SK-MEL-5) | GI50 (A549) | GI50 (EKVX) | GI50 (SK-MEL-2) | GI50 (OVCAR-3) | GI50 (RXF 393) | GI50 (RPMI-8226) | GI50 (SR)
1 | CCCCN(CCCC)/C(=N\C#N)NCc1ccccc1 | 29.4 µM (inactive) | 16.5 µM (inactive) | 16.4 µM (inactive) | 19.6 µM (inactive) | 14.4 µM (inactive) | 7.43 µM (inactive) | 15.8 µM (inactive) | 18.1 µM (inactive) | 14.3 µM (inactive) | 27.1 µM (inactive) | 21.9 µM (inactive) | 25.8 µM (inactive) | 19.6 µM (inactive) | 21.7 µM (inactive) | 13.6 µM (inactive) | 22.5 µM (inactive) | 13.7 µM (inactive) | –
2 | CC1=CC(=O)NP(=O)(C23CC4CC(CC(C4)C2)C3)N1 (stereo not given) | > 100 µM (inactive) | > 100 µM (inactive) | > 100 µM (inactive) | > 100 µM (inactive) | > 100 µM (inactive) | > 100 µM (inactive) | > 100 µM (inactive) | > 100 µM (inactive) | > 100 µM (inactive) | > 100 µM (inactive) | > 100 µM (inactive) | – | > 100 µM (inactive) | > 100 µM (inactive) | > 100 µM (inactive) | – | > 100 µM (inactive) | > 100 µM (inactive)
3 | CC(=O)Nc1ccc(C(=O)NN2C(=O)C(Cl)C2c2ccc(O)cc2)cc1 (stereo not given) | 64.1 µM (inactive) | > 100 µM (inactive) | > 100 µM (inactive) | > 100 µM (inactive) | – | > 100 µM (inactive) | > 100 µM (inactive) | > 100 µM (inactive) | > 100 µM (inactive) | > 100 µM (inactive) | > 100 µM (inactive) | > 100 µM (inactive) | > 100 µM (inactive) | > 100 µM (inactive) | > 100 µM (inactive) | 61.7 µM (inactive) | – | –
4 | CC1(C)CC(=O)C(CC2C(=O)c3ccccc3C2=O)C(=O)C1 | > 100 µM (inactive) | > 100 µM (inactive) | > 100 µM (inactive) | > 100 µM (inactive) | > 100 µM (inactive) | > 100 µM (inactive) | > 100 µM (inactive) | > 100 µM (inactive) | > 100 µM (inactive) | > 100 µM (inactive) | > 100 µM (inactive) | > 100 µM (inactive) | > 100 µM (inactive) | > 100 µM (inactive) | > 100 µM (inactive) | > 100 µM (inactive) | – | 53.7 µM (inactive)
5 | CCOC(=O)CNC1C(NC(C)=O)C(OC)OC2COC(c3ccccc3)OC21 (stereo not given) | > 100 µM (inactive) | > 100 µM (inactive) | > 100 µM (inactive) | > 100 µM (inactive) | > 100 µM (inactive) | > 100 µM (inactive) | > 100 µM (inactive) | > 100 µM (inactive) | > 100 µM (inactive) | > 100 µM (inactive) | > 100 µM (inactive) | > 100 µM (inactive) | > 100 µM (inactive) | > 100 µM (inactive) | > 100 µM (inactive) | > 100 µM (inactive) | > 100 µM (inactive) | –
6 | OCCCCOC(c1ccccc1)(c1ccccc1)c1ccccc1 | > 100 µM (inactive) | > 100 µM (inactive) | > 100 µM (inactive) | – | > 100 µM (inactive) | > 100 µM (inactive) | > 100 µM (inactive) | – | > 100 µM (inactive) | > 100 µM (inactive) | > 100 µM (inactive) | > 100 µM (inactive) | – | – | > 100 µM (inactive) | > 100 µM (inactive) | > 100 µM (inactive) | > 100 µM (inactive)
7 | O=C(CC1(O)C(=O)Nc2c(Cl)cc(Cl)cc21)c1ccccc1 (stereo not given) | 76 µM (inactive) | 31.6 µM (inactive) | > 100 µM (inactive) | > 100 µM (inactive) | > 100 µM (inactive) | 47.4 µM (inactive) | 40.9 µM (inactive) | > 100 µM (inactive) | 52.6 µM (inactive) | 50.5 µM (inactive) | 60.3 µM (inactive) | > 100 µM (inactive) | 82.4 µM (inactive) | > 100 µM (inactive) | > 100 µM (inactive) | > 100 µM (inactive) | 31.3 µM (inactive) | –
8 | CC(=O)NC(CCCCN)C(=O)NCc1ccccc1 (stereo not given) | 42.1 µM (inactive) | > 100 µM (inactive) | > 100 µM (inactive) | > 100 µM (inactive) | > 100 µM (inactive) | > 100 µM (inactive) | > 100 µM (inactive) | > 100 µM (inactive) | > 100 µM (inactive) | > 100 µM (inactive) | > 100 µM (inactive) | > 100 µM (inactive) | > 100 µM (inactive) | > 100 µM (inactive) | > 100 µM (inactive) | > 100 µM (inactive) | > 100 µM (inactive) | –
9 | CC(=O)Nc1ccccc1-c1cnc2ccccc2n1 | > 100 µM (inactive) | > 100 µM (inactive) | > 100 µM (inactive) | > 100 µM (inactive) | > 100 µM (inactive) | > 100 µM (inactive) | > 100 µM (inactive) | > 100 µM (inactive) | > 100 µM (inactive) | > 100 µM (inactive) | > 100 µM (inactive) | > 100 µM (inactive) | > 100 µM (inactive) | – | > 100 µM (inactive) | – | > 100 µM (inactive) | > 100 µM (inactive)
10 | C=CCC(C)(C(=O)NCCC)C(=O)c1ccccc1O (stereo not given) | > 100 µM (inactive) | – | > 100 µM (inactive) | > 100 µM (inactive) | – | > 100 µM (inactive) | > 100 µM (inactive) | > 100 µM (inactive) | – | > 100 µM (inactive) | > 100 µM (inactive) | > 100 µM (inactive) | – | > 100 µM (inactive) | > 100 µM (inactive) | > 100 µM (inactive) | > 100 µM (inactive) | > 100 µM (inactive)
11 | C=CCNC1=C(C(=O)OCC)C(=O)CO1 | > 100 µM (inactive) | > 100 µM (inactive) | – | > 100 µM (inactive) | > 100 µM (inactive) | > 100 µM (inactive) | > 100 µM (inactive) | > 100 µM (inactive) | > 100 µM (inactive) | > 100 µM (inactive) | > 100 µM (inactive) | > 100 µM (inactive) | > 100 µM (inactive) | > 100 µM (inactive) | > 100 µM (inactive) | > 100 µM (inactive) | > 100 µM (inactive) | > 100 µM (inactive)
12 | COc1cc(Br)c(CC2(C#N)c3ccccc3C3C(N2C(=O)c2ccccc2)C3(Cl)Cl)cc1OC (stereo not given) | > 65.5 µM (inactive) | > 65.5 µM (inactive) | 10.4 µM (inactive) | > 65.5 µM (inactive) | > 65.5 µM (inactive) | 5.7 µM (inactive) | > 65.5 µM (inactive) | – | – | > 65.5 µM (inactive) | 2.94 µM (inactive) | > 65.5 µM (inactive) | > 65.5 µM (inactive) | > 65.5 µM (inactive) | 15.1 µM (inactive) | > 65.5 µM (inactive) | 0.935 µM (active) | 4.01 µM (inactive)
13 | C=CCNC(=S)N1CC(C)C(=O)Nc2cc(Cl)ccc21 (stereo not given) | > 100 µM (inactive) | > 100 µM (inactive) | > 100 µM (inactive) | > 100 µM (inactive) | > 100 µM (inactive) | > 100 µM (inactive) | – | > 100 µM (inactive) | > 100 µM (inactive) | > 100 µM (inactive) | > 100 µM (inactive) | > 100 µM (inactive) | > 100 µM (inactive) | > 100 µM (inactive) | – | > 100 µM (inactive) | > 100 µM (inactive) | > 100 µM (inactive)
14 | c1ccc2[nH]c(-c3nc4ccccc4o3)nc2c1 | > 100 µM (inactive) | > 100 µM (inactive) | 49.9 µM (inactive) | – | > 100 µM (inactive) | – | – | > 100 µM (inactive) | > 100 µM (inactive) | > 100 µM (inactive) | 62.8 µM (inactive) | > 100 µM (inactive) | 8.65 µM (inactive) | > 100 µM (inactive) | > 100 µM (inactive) | – | 81.3 µM (inactive) | > 100 µM (inactive)
15 | Cc1c(/C=N/NC(=O)c2ccccc2)c(=O)n(-c2ccccc2)n1C | > 100 µM (inactive) | > 100 µM (inactive) | > 100 µM (inactive) | > 100 µM (inactive) | > 100 µM (inactive) | > 100 µM (inactive) | > 100 µM (inactive) | > 100 µM (inactive) | > 100 µM (inactive) | > 100 µM (inactive) | – | > 100 µM (inactive) | > 100 µM (inactive) | > 100 µM (inactive) | > 100 µM (inactive) | > 100 µM (inactive) | > 100 µM (inactive) | > 100 µM (inactive)
16 | CCc1cc(Cc2ccc(C)c(NC(=O)C(=O)C3C(=O)NC(=O)NC3=O)c2CC)cc(C)c1NC(=O)C(=O)C1C(=O)NC(=O)NC1=O | > 100 µM (inactive) | – | > 100 µM (inactive) | > 100 µM (inactive) | – | > 100 µM (inactive) | > 100 µM (inactive) | > 100 µM (inactive) | – | > 100 µM (inactive) | > 100 µM (inactive) | > 100 µM (inactive) | > 100 µM (inactive) | > 100 µM (inactive) | > 100 µM (inactive) | > 100 µM (inactive) | > 100 µM (inactive) | –
17 | COc1ccc2nc(NC(=O)C(=O)C(C(=O)c3ccccc3-c3ccccc3)C3OC(=O)c4ccccc43)sc2c1 (stereo not given) | 20 µM (inactive) | 36.6 µM (inactive) | 20.5 µM (inactive) | – | 16.5 µM (inactive) | 30.2 µM (inactive) | 23.8 µM (inactive) | 17.7 µM (inactive) | 27.2 µM (inactive) | 14.5 µM (inactive) | 16.2 µM (inactive) | 23.8 µM (inactive) | 21.7 µM (inactive) | 13.6 µM (inactive) | 18.5 µM (inactive) | 10.2 µM (inactive) | 10.7 µM (inactive) | –
